Experimental data: the supplement of paper PMC10307832

What was measured:
Assay in all cases: relative viability (nuclei count vs DMSO), 5 days (fraction); higher = more cells survive
[1] = tested on: NCI-H2347
Outline: (§1)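 Medians of duplicate plates are given as relative viability. That measure is the nuclei count in treated wells divided by the count in vehicle wells. Counts were taken on 4× images of lung cancer cell lines in 1536-well plates, 5 days after pin-tool dosing the day after seeding with one drug alone or a fixed anchor-drug dose plus five library-drug doses (not always all listed) in √10 steps.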

[2] = tested on: NCI-H1734
Outline: as §1

[3] = tested on: NCI-H322M
Outline: as §1

[4] = tested on: ABC-1
Outline: as §1

[5] = tested on: RERF-LC-KJ
Outline: as §1

[6] = tested on: A-427
Outline: as §1

[7] = tested on: LC-2-ad
Outline: as §1

[8] = tested on: SW 1573
Outline: as §1

[9] = tested on: NCI-H1915
Outline: as §1

[10] = tested on: NCI-H838
Outline: as §1

[11] = tested on: NCI-H441
Outline: as §1

[12] = tested on: HCC-15
Outline: as §1

[13] = tested on: NCI-H2023
Outline: as §1

[14] = tested on: UMC-11
Outline: as §1

[15] = tested on: NCI-H647
Outline: as §1

[16] = tested on: EPLC-272H
Outline: as §1

[17] = tested on: NCI-H2009
Outline: as §1

Cc1cn(-c2cc(NC(=O)c3ccc(C)c(Nc4nccc(-c5cccnc5)n4)c3)cc(C(F)(F)F)c2)cn1 [Nilotinib] + CC(C)C[C@H](NC(=O)[C@H](Cc1ccccc1)NC(=O)c1cnccn1)B(O)O [Bortezomib] (partner 0.002 µM)
relative viability ([1]; first compound 0.001 µM): 0.8 | relative viability ([1]; first compound 0.003162 µM): 1.08 | relative viability ([1]; first compound 0.01 µM): 1.17 | relative viability ([1]; first compound 0.03162 µM): 0.702 | relative viability ([1]; first compound 0.1 µM): 0.865 | relative viability ([2]; first compound 0.001 µM): 0.877 | relative viability ([2]; first compound 0.003162 µM): 0.948 | relative viability ([2]; first compound 0.01 µM): 1.01 | relative viability ([2]; first compound 0.03162 µM): 0.558 | relative viability ([2]; first compound 0.1 µM): 0.6 | relative viability ([3]; first compound 0.001 µM): 1.27 | relative viability ([3]; first compound 0.003162 µM): 1.47 | relative viability ([3]; first compound 0.03162 µM): 1.18 | relative viability ([3]; first compound 0.1 µM): 1.39 | relative viability ([4]; first compound 0.001 µM): 0.291 | relative viability ([4]; first compound 0.003162 µM): 0.275 | relative viability ([4]; first compound 0.01 µM): 0.23 | relative viability ([4]; first compound 0.03162 µM): 0.28 | relative viability ([5]; first compound 0.001 µM): 1.12 | relative viability ([5]; first compound 0.003162 µM): 1.14 | relative viability ([5]; first compound 0.01 µM): 1.22 | relative viability ([5]; first compound 0.03162 µM): 1.05 | relative viability ([5]; first compound 0.1 µM): 1.02 | relative viability ([6]; first compound 0.001 µM): 0.928 | relative viability ([6]; first compound 0.01 µM): 0.95 | relative viability ([6]; first compound 0.03162 µM): 1.02 | relative viability ([6]; first compound 0.1 µM): 0.536 | relative viability ([7]; first compound 0.001 µM): 0.914 | relative viability ([7]; first compound 0.003162 µM): 1.17 | relative viability ([7]; first compound 0.01 µM): 0.983 | relative viability ([7]; first compound 0.03162 µM): 0.992 | relative viability ([7]; first compound 0.1 µM): 0.527 | relative viability ([8]; first compound 0.001 µM): 1.02 | relative viability ([8]; first compound 0.003162 µM): 1.4 | relative viability ([8]; first compound 0.01 µM): 1.54 | relative viability ([8]; first compound 0.03162 µM): 0.796 | relative viability ([8]; first compound 0.1 µM): 1.09 | relative viability ([9]; first compound 0.001 µM): 0.932 | relative viability ([9]; first compound 0.003162 µM): 1.17 | relative viability ([9]; first compound 0.01 µM): 1.18 | relative viability ([9]; first compound 0.03162 µM): 0.823 | relative viability ([9]; first compound 0.1 µM): 0.85 | relative viability ([10]; first compound 0.001 µM): 0.867 | relative viability ([10]; first compound 0.003162 µM): 0.731 | relative viability ([10]; first compound 0.01 µM): 0.976 | relative viability ([10]; first compound 0.03162 µM): 0.673 | relative viability ([10]; first compound 0.1 µM): 0.709 | relative viability ([11]; first compound 0.001 µM): 0.33 | relative viability ([11]; first compound 0.003162 µM): 0.735 | relative viability ([11]; first compound 0.01 µM): 0.492 | relative viability ([11]; first compound 0.1 µM): 0.219 | relative viability ([12]; first compound 0.001 µM): 0.92 | relative viability ([12]; first compound 0.003162 µM): 1.41 | relative viability ([12]; first compound 0.01 µM): 1.33 | relative viability ([12]; first compound 0.03162 µM): 0.855 | relative viability ([12]; first compound 0.1 µM): 0.629 | relative viability ([13]; first compound 0.001 µM): 1 | relative viability ([13]; first compound 0.003162 µM): 0.691 | relative viability ([13]; first compound 0.01 µM): 1.16 | relative viability ([13]; first compound 0.03162 µM): 0.925 | relative viability ([13]; first compound 0.1 µM): 0.206 | relative viability ([14]; first compound 0.001 µM): 0.65 | relative viability ([14]; first compound 0.003162 µM): 0.658 | relative viability ([14]; first compound 0.01 µM): 0.806 | relative viability ([14]; first compound 0.1 µM): 0.333 | relative viability ([15]; first compound 0.001 µM): 0.79 | relative viability ([15]; first compound 0.003162 µM): 1.52 | relative viability ([15]; first compound 0.03162 µM): 0.57 | relative viability ([15]; first compound 0.1 µM): 0.951 | relative viability ([16]; first compound 0.001 µM): 1.06 | relative viability ([16]; first compound 0.003162 µM): 1.21 | relative viability ([16]; first compound 0.01 µM): 0.863 | relative viability ([16]; first compound 0.03162 µM): 0.72 | relative viability ([16]; first compound 0.1 µM): 0.429 | relative viability ([17]; first compound 0.001 µM): 0.937 | relative viability ([17]; first compound 0.003162 µM): 1.14 | relative viability ([17]; first compound 0.01 µM): 1.16 | relative viability ([17]; first compound 0.03162 µM): 1.06 | relative viability ([17]; first compound 0.1 µM): 0.218
